Where a name gives a salt, the structure may show the parent alone. Read-outs that look alike come from different tables or passages of the source.
Assays:
[1] = biological target: T1, human liver cathepsin B (Homo sapiens, UniProt P07858); assay: Specificity assay, cathepsin B; format: biochemical; settings: 2 hr pre-incubation
T1 construct: purchased Sigma; host or cells: human liver (as named)
Method: (§1) The specificities of compounds of the present invention were determined against a variety of serine proteases: human neutrophil elastase (HNE), porcine pancreatic elastase (PPE) and human pancreatic chymotrypsin and one cysteine protease: human liver cathepsin B. In all cases a 96-well plate format protocol using colorimetric p-nitroaniline (pNA) substrate specific for each enzyme was used as described previously (U.S. Pat. No. 6,323,180) with some modifications to the serine protease assays. All enzymes were purchased from Sigma while the substrates were from Bachem.
(§2) Each assay included a 2 hr enzyme-inhibitor pre-incubation at RT followed by addition of substrate and hydrolysis to ˜30% conversion as measured on a Spectramax Pro microplate reader. Compound concentrations varied from 100 to 0.4 μM depending on their potency. […]
(§3) The percentage of inhibition was calculated using the formula: [1−((UVinh−UVblank)/(UVctl−UVblank))]×100 […]

[2] = test system: HCV replicon in Huh7 cells; assay: HCV replicon cell-based assay (replicon FRET assay); design: species or system HCV strain 1B; settings: Hepatitis C virus, Huh-7, HCV replicon cell assay
In short: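 Huh7 cells carrying a genotype 1b subgenomic replicon (neo, NS3–NS5B) were treated with compound for 4 days at 37 °C in 0.5% DMSO final. Lysates with 10 μM RET S1 FRET peptide and 150 mM NaCl were read kinetically at 340/490 nm over 21 cycles. EC50 was derived as for the enzyme IC50.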

[3] = test system: human pancreatic chymotrypsin; assay: Specificity assay, chymotrypsin; format: biochemical; settings: 2 hr pre-incubation
Method: as §1, §2, §3

[4] = biological target: T2, porcine pancreatic elastase (PPE) (Sus scrofa, UniProt P00772); assay: Specificity assay, porcine pancreatic elastase; format: biochemical; settings: 2 hr pre-incubation
T2 construct: purchased Sigma
T2 sequence (P00772 27-266): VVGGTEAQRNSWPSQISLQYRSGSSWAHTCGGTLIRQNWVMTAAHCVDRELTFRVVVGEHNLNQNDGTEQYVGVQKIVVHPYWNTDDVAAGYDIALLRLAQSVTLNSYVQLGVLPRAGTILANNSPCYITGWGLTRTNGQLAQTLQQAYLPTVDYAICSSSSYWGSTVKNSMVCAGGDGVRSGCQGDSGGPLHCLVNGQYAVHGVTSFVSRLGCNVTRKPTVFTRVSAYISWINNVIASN
Method: as §1, §2, §3

COc1ccc2c(O[C@@H]3C[C@H]4C(=O)N[C@]5(C(=O)NS(=O)(=O)C6CC6)CC5/C=C/CCCC[C@H](N)C(=O)N4C3)cc(-c3ccccc3)nc2c1 (stereo partly drawn) [Compound 6, (1S,4R,6S,13S,17R)-7-trans-Cyclopropanesulfonic acid [13-amino-17-(7-methoxy-2-phenylquinolin-4-yloxy)-2,14-dioxo-3,15-diazatricyclo[13.3.0.0^4,6]octadec-7-ene-4-carbonyl]amide dihydrochloride]
IC50 [1]: > 100 µM | EC50 ([2]; EC50 ranges): < 0.5 µM | EC50 ([2]; read-out: EC50): ~0.124 µM | IC50 [3]: > 100 µM | IC50 [4]: > 100 µM

From patent US6867185B2 (Bristol-Myers Squibb Company, priority 2001, dated 2005)
